# Source: patent US10894948B2, “Resetting pluripotent stem cells” (CAMBRIDGE ENTERPRISE LIMITED, priority 2014, dated 2021)
# Experiments:
# HNES cells = test: Colony formation of HNES cells in 2-deoxyglucose; assay type: cell-based, human; conditions: HNES cells versus HNES-primed cells
# Excerpt: Primed PSC rely on anaerobic glycolysis with very low mitochondrial respiration capacity (Zhou et al., 2012). […] We evaluated the capacity of HNES cells to form colonies in the presence of the glycolysis inhibitor 2-deoxyglucose. […] HNES cells also stained intensely with MitoProbe™ DilC1, reflecting mitochondrial membrane potential (not shown).
# [1] = tested on: reset cells and conventional PSC; test: Proliferation / colony formation in 2-deoxyglucose; assay type: cell-based, human; conditions: reset cells in contrast to conventional PSC, 7 days
# Method: C & D. Proliferation in 2-deoxyglucose. After single cell dissociation, 3×10^4 cells were seeded on 12 wells and cultured for 7 days with indicated concentrations of 2-deoxyglucose (2DG) or reduced glucose. ROCKi was added to conventional PSC.
# We examined functional consequences of altered metabolic properties by culture in 2-deoxyglucose to inhibit glycolysis and in reduced concentrations of glucose to increase dependency on mitochondrial respiration.
structure (smiles),measurement,setting,value
O=CC[C@@H](O)[C@H](O)[C@H](O)CO [2-deoxyglucose],colony formation in the presence of 2-deoxyglucose,HNES cells,Undifferentiated HNES cells readily formed colonies while HNES-primed cells did not survive
same,colony formation in the presence of 2-deoxyglucose,[1],reset cells formed undifferentiated colonies
